Measurements published in US20260091026A1, “METHODS OF TREATING INFLAMMATORY DISEASES” (INTERLINE THERAPEUTICS, INC., priority 2023, published 2026).
pIC50: −log10 of the molar value.

Columns and labels:
RIPK2 (KD)/XIAP (BIR2) = molecular target: T1, RIPK2 (KD)/XIAP (BIR2) (Homo sapiens, UniProt O43353); assay: RIPK2-XIAP binding competition PPI assay (TR-FRET); conditions: for Emax: 50 nM of GSK583 = -100% activity, read-out: PPI Amax; for pIC50: GST-RIPK2 / His-XIAP (BIR2)-avi, 120 min at 23° C.
T1 construct: made in house; host or cells: baculovirus-infected Sf9 cells
Procedure, shortened: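 TR-FRET competition between GST-RIPK2 (aa 1-310, 1 nM) and His-XIAP BIR2-avi (aa 152-231, 25 nM), both Sf9-expressed, detected with anti-His-XL665 and anti-GST-Tb in Tris pH 7.5 buffer with MgCl2, DTT and vanadate. Incubation was 120 min at 23 °C; the 665/520 nm ratio was normalized to no inhibitor (0%) and 50 nM GSK583 (−100%).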

[1] = tested on: THP1-Dual cells, NF-κB pathway (SEAP); assay: THP-1 Dual cell SEAP assay (L18-MDP stimulated); format: cell-based; conditions: Homo sapiens, 10 ng/mL L18-MDP, 20-24 h, SEAP readout, read-out: IFNγ THP1 IC50
Procedure, shortened: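 About 25,000 THP1-Dual cells per well were preincubated 30 min with serially diluted compound, then stimulated overnight (20-24 h, 37 °C) with 10 ng/mL L18-MDP (final). NF-κB-driven SEAP in supernatant was read with QUANTI-Blue at OD 620-655 nm after 2 h; % inhibition versus DMSO/L18-MDP wells was fitted by non-linear regression to give IC50.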

T1 sequence (O43353 1-310): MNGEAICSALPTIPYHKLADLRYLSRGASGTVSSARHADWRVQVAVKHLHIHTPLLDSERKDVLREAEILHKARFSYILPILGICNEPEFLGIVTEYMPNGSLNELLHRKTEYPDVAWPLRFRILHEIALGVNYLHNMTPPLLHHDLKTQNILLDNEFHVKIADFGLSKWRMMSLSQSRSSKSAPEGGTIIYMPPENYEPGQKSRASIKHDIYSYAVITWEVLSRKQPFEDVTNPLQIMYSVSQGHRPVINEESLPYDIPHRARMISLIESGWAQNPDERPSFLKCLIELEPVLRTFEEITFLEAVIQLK

Row | SMILES | Emax (RIPK2 (KD)/XIAP (BIR2)) | pIC50 (RIPK2 (KD)/XIAP (BIR2)) | pIC50 [1]
1 | COc1cn2ncc(-c3cc(C(=O)N[C@H](C)c4ccccn4)n(C)n3)c2cc1C1(F)CCN(C)CC1 [Example 58, (R)-3-(5-(4-fluoro-1-methylpiperidin-4-yl)-6-methoxypyrazolo[1,5-a]pyridin-3-yl)-1-methyl-N-(1-(pyridin-2-yl)ethyl)-1H-pyrazole-5-carboxamide] | ≥ 80% | 6.00 to 7.00 | 5.60 to 6.30
2 | COc1cc2ncc(-c3cc(C(=O)N[C@H](C)c4ccn(C)n4)n(C)n3)n2cc1S(=O)(=O)C(C)(C)C [Example 59, (R)-3-(6-(tert-butylsulfonyl)-7-methoxyimidazo[1,2-a]pyridin-3-yl)-1-methyl-N-(1-(1-methyl-1H-pyrazol-3-yl)ethyl)-1H-pyrazole-5-carboxamide] | ≥ 80% | 6.00 to 7.00 | 5.60 to 6.30
3 | COc1cc2ncc(-c3cc(C(=O)N[C@@H](C)c4ccn(C)n4)n(C)n3)n2cc1S(=O)(=O)C(C)(C)C [Example 60, (S)-3-(6-(tert-butylsulfonyl)-7-methoxyimidazo[1,2-a]pyridin-3-yl)-1-methyl-N-(1-(1-methyl-1H-pyrazol-3-yl)ethyl)-1H-pyrazole-5-carboxamide] | ≥ 80% | < 6.00 | < 5.60
4 | CC[C@@H](NC(=O)c1cc(-c2cnc3cc(OC)c(S(=O)(=O)C(C)(C)C)cn23)nn1C)c1ccccn1 [Example 61, (R)-3-(6-(tert-butylsulfonyl)-7-methoxyimidazo[1,2-a]pyridin-3-yl)-1-methyl-N-(1-(pyridin-2-yl)propyl)-1H-pyrazole-5-carboxamide] | ≥ 80% | 6.00 to 7.00 | < 5.60
5 | COc1cc2ncc(-c3cc(C(=O)N[C@@H](c4ccccn4)C(F)(F)F)n(C)n3)n2cc1S(=O)(=O)C(C)(C)C [Example 62, (S)-3-(6-(tert-butylsulfonyl)-7-methoxyimidazo[1,2-a]pyridin-3-yl)-1-methyl-N-(2,2,2-trifluoro-1-(pyridin-2-yl)ethyl)-1H-pyrazole-5-carboxamide] | ≥ 80% | 6.00 to 7.00 | 5.60 to 6.30
6 | COc1cc2ncc(-c3cc(C(=O)N[C@@H]4CCc5cccnc54)n(C)n3)n2cc1S(=O)(=O)C(C)(C)C [Example 63, (R)-3-(6-(tert-butylsulfonyl)-7-methoxyimidazo[1,2-a]pyridin-3-yl)-N-(6,7-dihydro-5H-cyclopenta[b]pyridin-7-yl)-1-methyl-1H-pyrazole-5-carboxamide] | ≥ 80% | 6.00 to 7.00 | < 5.60
7 | COc1cc2ncc(-c3cc(C(=O)N[C@H]4CCc5cccnc54)n(C)n3)n2cc1S(=O)(=O)C(C)(C)C [Example 64, (S)-3-(6-(tert-butylsulfonyl)-7-methoxyimidazo[1,2-a]pyridin-3-yl)-N-(6,7-dihydro-5H-cyclopenta[b]pyridin-7-yl)-1-methyl-1H-pyrazole-5-carboxamide] | ≥ 80% | 7.00 to 8.00 | 5.60 to 6.30
8 | COc1cc2ncc(-c3cc(C(=O)NCc4ncccc4C)n(C)n3)n2cc1S(=O)(=O)C(C)(C)C [Example 65, 3-(6-(tert-butylsulfonyl)-7-methoxyimidazo[1,2-a]pyridin-3-yl)-1-methyl-N-((3-methylpyridin-2-yl)methyl)-1H-pyrazole-5-carboxamide] | ≥ 80% | 6.00 to 7.00 | < 5.60
9 | COc1cc2ncc(-c3cc(C(=O)NCc4ncccn4)n(C)n3)n2cc1S(=O)(=O)C(C)(C)C [Example 66, 3-(6-(tert-butylsulfonyl)-7-methoxyimidazo[1,2-a]pyridin-3-yl)-1-methyl-N-(pyrimidin-2-ylmethyl)-1H-pyrazole-5-carboxamide] | ≥ 80% | 6.00 to 7.00 | 5.60 to 6.30
10 | COc1cc2ncc(-c3cc(C(=O)NCc4cnccn4)n(C)n3)n2cc1S(=O)(=O)C(C)(C)C [Example 67, 3-(6-(tert-butylsulfonyl)-7-methoxyimidazo[1,2-a]pyridin-3-yl)-1-methyl-N-(pyrazin-2-ylmethyl)-1H-pyrazole-5-carboxamide] | 55 to 80% | < 6.00 | < 5.60
11 | COc1cc2ncc(-c3cc(C(=O)NCc4ccncn4)n(C)n3)n2cc1S(=O)(=O)C(C)(C)C [Example 68, 3-(6-(tert-butylsulfonyl)-7-methoxyimidazo[1,2-a]pyridin-3-yl)-1-methyl-N-(pyrimidin-4-ylmethyl)-1H-pyrazole-5-carboxamide] | ≤ 30% | < 6.00 | < 5.60
12 | COc1cc2ncc(-c3cc(C(=O)NCc4cccnn4)n(C)n3)n2cc1S(=O)(=O)C(C)(C)C [Example 69, 3-(6-(tert-butylsulfonyl)-7-methoxyimidazo[1,2-a]pyridin-3-yl)-1-methyl-N-(pyridazin-3-ylmethyl)-1H-pyrazole-5-carboxamide] | ≤ 30% | < 6.00 | < 5.60
13 | COc1cc2ncc(-c3cc(C(=O)NCc4ccnn4C)n(C)n3)n2cc1S(=O)(=O)C(C)(C)C [Example 70, 3-(6-(tert-butylsulfonyl)-7-methoxyimidazo[1,2-a]pyridin-3-yl)-1-methyl-N-((1-methyl-1H-pyrazol-5-yl)methyl)-1H-pyrazole-5-carboxamide] | 30 to 55% | < 6.00 | < 5.60
14 | COc1cc2ncc(-c3cc(C(=O)NCc4ncccc4Cl)n(C)n3)n2cc1S(=O)(=O)C(C)(C)C [Example 71, 3-(6-(tert-butylsulfonyl)-7-methoxyimidazo[1,2-a]pyridin-3-yl)-N-((3-chloropyridin-2-yl)methyl)-1-methyl-1H-pyrazole-5-carboxamide] | ≥ 80% | 7.00 to 8.00 | 5.60 to 6.30
15 | COc1cc2ncc(-c3cc(C(=O)NCc4ncccc4OC)n(C)n3)n2cc1S(=O)(=O)C(C)(C)C [Example 72, 3-(6-(tert-butylsulfonyl)-7-methoxyimidazo[1,2-a]pyridin-3-yl)-N-((3-methoxypyridin-2-yl)methyl)-1-methyl-1H-pyrazole-5-carboxamide] | ≥ 80% | 6.00 to 7.00 | < 5.60
16 | COc1ccccc1CNC(=O)c1cc(-c2cnc3cc(OC)c(S(=O)(=O)C(C)(C)C)cn23)nn1C [Example 73, 3-(6-(tert-butylsulfonyl)-7-methoxyimidazo[1,2-a]pyridin-3-yl)-N-(2-methoxybenzyl)-1-methyl-1H-pyrazole-5-carboxamide] | ≥ 80% | 7.00 to 8.00 | 5.60 to 6.30
17 | COc1cc2ncc(-c3cc(C(=O)NCc4ccccc4CO)n(C)n3)n2cc1S(=O)(=O)C(C)(C)C [Example 74, 3-(6-(tert-butylsulfonyl)-7-methoxyimidazo[1,2-a]pyridin-3-yl)-N-(2-(hydroxymethyl)benzyl)-1-methyl-1H-pyrazole-5-carboxamide] | ≥ 80% | 7.00 to 8.00 | 5.60 to 6.30
18 | COc1ccccc1[C@@H](C)NC(=O)c1cc(-c2cnc3cc(OCCO)c(S(=O)(=O)C(C)(C)C)cn23)nn1C [Example 75, (R)-3-(6-(tert-butylsulfonyl)-7-(2-hydroxyethoxy)imidazo[1,2-a]pyridin-3-yl)-N-(1-(2-methoxyphenyl)ethyl)-1-methyl-1H-pyrazole-5-carboxamide] | ≥ 80% | 7.00 to 8.00 | 5.60 to 6.30
19 | COc1cc2ncc(-c3cc(C(=O)NCc4nccn4C)n(C)n3)n2cc1S(=O)(=O)C(C)(C)C [Example 76, 3-(6-(tert-butylsulfonyl)-7-methoxyimidazo[1,2-a]pyridin-3-yl)-1-methyl-N-((1-methyl-1H-imidazol-2-yl)methyl)-1H-pyrazole-5-carboxamide] | ≤ 30% | < 6.00 | < 5.60
20 | COc1cc2ncc(-c3cc(C(=O)NCc4noc(C)n4)n(C)n3)n2cc1S(=O)(=O)C(C)(C)C [Example 77, 3-(6-(tert-butylsulfonyl)-7-methoxyimidazo[1,2-a]pyridin-3-yl)-1-methyl-N-((5-methyl-1,2,4-oxadiazol-3-yl)methyl)-1H-pyrazole-5-carboxamide] | ≥ 80% | 6.00 to 7.00 | < 5.60
21 | COc1cc2ncc(-c3cc(C(=O)NCc4nc(C)no4)n(C)n3)n2cc1S(=O)(=O)C(C)(C)C [Example 78, 3-(6-(tert-butylsulfonyl)-7-methoxyimidazo[1,2-a]pyridin-3-yl)-1-methyl-N-((3-methyl-1,2,4-oxadiazol-5-yl)methyl)-1H-pyrazole-5-carboxamide] | 55 to 80% | < 6.00 | < 5.60
22 | COc1cc2ncc(-c3cc(C(=O)NCc4nccc(C)n4)n(C)n3)n2cc1S(=O)(=O)C(C)(C)C [Example 79, 3-(6-(tert-butylsulfonyl)-7-methoxyimidazo[1,2-a]pyridin-3-yl)-1-methyl-N-((4-methylpyrimidin-2-yl)methyl)-1H-pyrazole-5-carboxamide] | ≥ 80% | 6.00 to 7.00 | < 5.60
23 | CCn1nc(-c2cnc3cc(OC)c(S(=O)(=O)C(C)(C)C)cn23)cc1C(=O)NCc1ncccn1 [Example 80, 3-(6-(tert-butylsulfonyl)-7-methoxyimidazo[1,2-a]pyridin-3-yl)-1-ethyl-N-(pyrimidin-2-ylmethyl)-1H-pyrazole-5-carboxamide] | ≥ 80% | 7.00 to 8.00 | 6.30 to 7.00
